In patent US20260209777A1, “TARGETING GLYCOSYLPHOSPHATIDYLINOSITOL (GPI) PATHWAY PROTEINS TO TREAT OVARIAN CANCER” (UNIVERSITY OF MASSACHUSETTS, priority 2023, published 2026):

Columns and labels:
Type in all cases: cell-based, human
SKOV3 cells = assay: In vitro phagocytosis assay of SKOV3 cells by PBMC-derived M2 macrophages; conditions: bestatin 20 μM, tosedostat 20 μM, vs DMSO
OVCAR8 cells = assay: In vitro phagocytosis assay of OVCAR8 cells by PBMC-derived M2 macrophages; conditions: bestatin 20 μM; for macrophage-mediated phagocytosis: OVCAR8, tosedostat 20 μM, ARM1 2 μM, vs DMSO; for phagocytosis of OVCAR8 cells: tosedostat 10 μM vs DMSO, anti-CD24 antibody (clone SN3) vs IgG (FIG. 9C)
Excerpt: Macrophage Generation and Stimulation: Primary human donor-derived macrophages were generated as described previously (Martinez, Curr Protocol Immunol 2012, Chapter 14:14.28.1-14.28.23). In brief, Leukopaks from anonymous donors were obtained from the Rhode Island Blood (Providence, RI) and peripheral blood […] (PBMCs) were isolated by density gradients centrifugation using Ficoll Paque Plus (Sigma-Aldrich, Cat #17-1440-02) followed by RBC lysis using RBC lysis buffer (eBioscience, Cat #00-4333-57). For monocyte isolation, PBMCs were incubated in Monocyte Attachment Medium (Sigma-Aldrich, Cat #C-28051) for 1 hour at 37° C. and 5% CO2 and then washed three times in Iscove's Modified Dulbecco's Medium (IMDM) (Gibco, Cat #12440053) to remove non-adherent cells. The remaining monocytes were detached and seeded in 96-well plates and cultured at 37° C. and 5% CO2 in IMDM supplemented with 10% FBS (Atlanta Biologicals, Cat #S11550) and 20 ng/ml recombinant human M-CSF (Peprotech, Cat #AF-300-25). After 4 days monocytes were then treated with 20 ng/ml recombinant human IL-4 (Peprotech, Cat #200-04) and 10 ng/mL recombinant human IL-10 (PeproTech, Cat #200-10) for another 3-4 days to obtain M2 polarized macrophages. Macrophage differentiation was confirmed morphologically using microscopy. M2-macrophage polarization was confirmed by immunophenotyping of the M2 marker CD206 using PE-conjugated anti-human anti-CD206 antibody (BioLegend, Cat #321106, clone 15-2, 1:100 dilution). In vitro Phagocytosis Assays: To facilitate the quantification of phagocytic events, we adapted a microscopy-based fluorescence phagocytosis […] al., J Immunol Methods 2009, 342(1-2):71-7; Lindner et al., Biotechniques 2020, 68(5):245-250) for use with a Celigo imaging cytometer. […] Cells were incubated with pHrodo Red, SE (Invitrogen, Cat #P36600) on ice for 30 min and then co-cultured with PBMC-derived M2 macrophages (prepared as described above) at a ratio of 1:2 (OVCAR8/B cells: macrophages) for 2 hours in a humidified 5% CO2 incubator at 37° C. Phagocytic events were quantified by counting the number of red fluorescent (pHrodo+) cells per well using a Celigo Imaging Cytometer (Nexcelom). EmGFP was used for the visualization of cancer cells in imaging Phagocytic events were also quantified using a previously-described flow cytometry-based assay (Barkal et al., Nature 2019, 572(7769):392-396; […] et al., Biomedicines 2022, 10(5):1175). In brief, M2 macrophages co-cultured with OVCAR8/EmGFP-luc cells were detached using TrypLE Express (GibcoTM, cat #12604013), stained with APC anti-human CD11b clone ICRF44 (BioLegend, Cat #982604) and analyzed by flow cytometry (BioRad ZE5). Double-positive EmGFP+CD11b+ cells were considered phagocytic events.

[1] = test system: CD24 cell surface expression in OVCAR8 cells; assay: CD24 flow cytometry analysis in OVCAR8 cells; conditions: for CD24 cell surface expression (MFI): OVCAR8, 3 days, bestatin 10 or 20 μM, tosedostat 5 or 10 μM, ARM1 1 or 2 μM, vs DMSO
Procedure: Flow Cytometry Analysis: For cell surface protein staining, 1×10^5-1×10^6 cells were first incubated with Fc receptor blocking solution, Human TruStain FcXTM (BioLegend, Cat #422301) for 10 minutes at room temperature. Cells were washed once in FACS buffer (1×PBS, 1.0% bovine serum albumin (BSA) (Sigma) and 0.2% sodium azide (Sigma), and then incubated with antibodies (given below) for 30 minutes at 4° C. in the dark. Cells were also stained with 7-AAD (Biolegend, Cat #420404) for dead cell exclusion, and flow cytometry analysis was performed using a Bio-Rad ZE5 Cell Analyzer. Following antibodies used in this study (all antibodies were used at 1:50 dilution unless otherwise noted): APC anti-human CD24 (BioLegend, Cat #311118, clone ML5), PE anti-human CD24 (eBioscience, Cat #12-0247-42, clone SN3), APC anti-human CD47 (BioLegend, Cat #323124, clone CC2C6), APC anti-human § 2-microglobulin (BioLegend, Cat #395711, clone […]), PE anti-human HLA-A2 (MHC-class I) (BioLegend, Cat #343305, clone BB7.2), APC anti-human CD11b (BioLegend, Cat #982604, clone ICRF44), APC anti-mouse F4/80 antibody (BioLegend, Cat #123116, clone BM8), APC-streptavidin (Thermo Fisher Scientific, Cat #SA1005, 1:100 dilution), PE anti-Calreticulin (Invitrogen, Catalog #MA5-15382, 1:200 dilution). For intracellular staining, cells were fixed with 1% paraformaldehyde for 5 min and permeabilized using the True-Nuclear Transcription Factor Buffer Set (BioLegend, Cat #424401) before the addition of the antibody. Small Molecule Inhibitor and Drug Treatments: OVCAR8 or SKOV3 cells were treated for 3 days with bestatin (Ubenimex) (SelleckChem, Cat #S1591) at 5, 10 or 20 μM (as indicated in the figure legends), Tosedostat (Medchem Express, Cat #HY-14807) at 5 μM or 10 μM (as indicated in the figure legends) or ARM-1 (Medchem Express, Cat #HY-W027340) at 1, or 2 μM (as indicated in the figure legends). Inhibitors were replenished every 24 hours. DMSO (Sigma Aldrich, Cat #D8418) was used as a vehicle. OVCAR8 cells were treated with Docetaxel (SelleckChem, Cat #S1148) at 100 nM or Carboplatin (SelleckChem, Cat #S1215 at 100 nM or Doxorubicin (SelleckChem, Cat #E2516) at 50 nM for 12 hours.

SMILES	macrophage-mediated phagocytosis (SKOV3 cells)	macrophage-mediated phagocytosis (OVCAR8 cells)	phagocytosis of OVCAR8 cells (OVCAR8 cells)	total CD24 levels following permeabilization of cells ([1]; OVCAR8, 20 μM bestatin, permeabilized (FIG. 6E))	CD24 cell surface expression (MFI) [1]	ability to decrease CD24 cell surface expression after knockdown of PEPT1 or PEPT2 ([1]; OVCAR8 expressing PEPT1 or PEPT2 shRNA, 20 μM bestatin (FIG. 7C))
CC(C)C[C@H](NC(=O)[C@@H](O)[C@H](N)Cc1ccccc1)C(=O)O [bestatin]	substantially increased	substantially increased	susceptible	no significant effect	reduced CD24 cell surface expression in a dose-dependent manner	abrogated
CC(C)C[C@@H](C(=O)N[C@H](C(=O)OC1CCCC1)c1ccccc1)[C@H](O)C(=O)NO [tosedostat]	increased	increased	susceptible		reduced	
